According to US11834420B2, “Preparation method of pyrimidinylthio-benzoate oxime ester compound and application thereof as herbicide” (CHANGZHOU UNIVERSITY, priority 2019, dated 2023):

What was measured:
[1] = system: Amaranthus retroflexus; experiment: Pot experiment, indoor herbicidal activity (stem and leaf spray); format: in vivo; details: fresh weight inhibition rate, 45 g a.i/hm^2, stem and leaf spray, 21st day after applying
Protocol: (§1) 20 mg of the pyrimidinylthio-benzoate compound active pharmaceutical ingredients (APIs) is weighed with a 1/10,000 analytical balance, dissolved with acetone (or DMF or DMSO), and diluted with a 0.1% Tween-80 aqueous solution to a concentration of 45 g a.i/hm^2.
(§2) The test soil is quantitatively filled to 4/5 of the pot, and subirrigation method is adopted at a bottom of the pot to moisten the soil. The test weed seeds are sown on the soil surface and cultivated in a greenhouse. When the gramineous weeds grow to 3-4 leaf stage and broadleaf weeds grow to 4-6 leaf stage, a stem and leaf spray method is used for treatment. On the 21st day after applying the herbicide, the above-ground part is taken to weigh the fresh weight, and the fresh weight inhibition rate is calculated according to the formula. Fresh weight inhibition rate (%)=(control fresh weight−treated fresh weight)/control fresh weight×100%
(§3) Pyrithiobac-sodium is used as a positive control. The herbicidal activity of the target compound is screened. The dosage refers to the applied dosage of the pyrithiobac-sodium in the cotton field, i.e., 45 g a.i/hm^2, and the stem and leaf spray method is used for treatment.

[2] = system: Chenopodium album; experiment: as above; format: in vivo; details: fresh weight inhibition rate, 45 g a.i/hm^2, stem and leaf spray, 21st day after applying
Protocol: as §1, §2, §3

[3] = system: Echinochloa crusgalli; experiment: as above; format: in vivo; details: fresh weight inhibition rate, 45 g a.i/hm^2, stem and leaf spray, 21st day after applying
Protocol: as §1, §2, §3

[4] = system: Eleusine indica; experiment: as above; format: in vivo; details: fresh weight inhibition rate, 45 g a.i/hm^2, stem and leaf spray, 21st day after applying
Protocol: as §1, §2, §3

[5] = system: Portulaca oleracea; experiment: as above; format: in vivo; details: fresh weight inhibition rate, 45 g a.i/hm^2, stem and leaf spray, 21st day after applying
Protocol: as §1, §2, §3

[6] = system: Setaria viridis; experiment: as above; format: in vivo; details: fresh weight inhibition rate, 45 g a.i/hm^2, stem and leaf spray, 21st day after applying
Protocol: as §1, §2, §3

Row | SMILES | Inhibition rate (%) Amaranthus retroflexus [1] [%] | Inhibition rate (%) Chenopodium album [2] [%] | Inhibition rate (%) Echinochloa crusgalli [3] [%] | Inhibition rate (%) Eleusine indica [4] [%] | Inhibition rate (%) Portulaca oleracea [5] [%] | Inhibition rate (%) Setaria viridis [6] [%] | melting point [°C]
1 | COc1cc(OC)nc(Sc2cccc(Cl)c2C(=O)O/N=C(\C)c2ccccc2C)n1 [A, (E)-1-(o-tolyl)ethan-1-one O-(2-chloro-6-((4,6-dimethoxypyrimidin-2-yl)thio)benzoyl) oxime] | 92.0 | 100 | 35.6 | 67.6 | 35.4 | 31.3 | 108 to 111
2 | COc1cc(OC)nc(Sc2cccc(Cl)c2C(=O)O/N=C(\C)c2cccc(C)c2)n1 [B, (E)-1-(m-tolyl)ethan-1-one O-(2-chloro-6-((4,6-dimethoxypyrimidin-2-yl)thio)benzoyl) oxime] | 93.5 | 87.0 | 30.3 | 53.0 | 60.7 | 53.0 | 84 to 88
3 | COc1cc(OC)nc(Sc2cccc(Cl)c2C(=O)O/N=C(\C)c2ccc(C)cc2)n1 [C, (E)-1-(p-tolyl)ethan-1-one O-(2-chloro-6-((4,6-dimethoxypyrimidin-2-yl)thio)benzoyl) oxime] | 90.4 | 95.8 | 37.5 | 52.5 | 40.9 | 39.3 | 115 to 119
4 | COc1cc(OC)nc(Sc2cccc(Cl)c2C(=O)O/N=C(\C)c2ccccc2C(F)(F)F)n1 [D, (E)-1-(2-(trifluoromethyl)phenyl)ethan-1-one O-(2-chloro-6-((4,6-dimethoxypyrimidin-2-yl)thio)benzoyl)oxime] | 80.2 | 89.6 | 78.3 | 52.4 | 69.2 | 33.7 | 82 to 85
5 | COc1cc(OC)nc(Sc2cccc(Cl)c2C(=O)O/N=C(\C)c2cccc(C(F)(F)F)c2)n1 [E, (E)-1-(3-(trifluoromethyl)phenyl)ethan-1-one O-(2-chloro-6-((4,6-dimethoxypyrimidin-2-yl)thio)benzoyl)oxime] | 82.4 | 82.4 | 79.5 | 37.0 | 64.6 | 27.8 | 81 to 86
6 | COc1cc(OC)nc(Sc2cccc(Cl)c2C(=O)O/N=C(\C)c2ccc(C(F)(F)F)cc2)n1 [F, (E)-1-(4-(trifluoromethyl)phenyl)ethan-1-one O-(2-chloro-6-((4,6-dimethoxypyrimidin-2-yl)thio)benzoyl)oxime] | 97.5 | 85.1 | 100 | 80.7 | 84.4 | 56.0 | 86 to 90
7 | COc1cc(OC)nc(Sc2cccc(Cl)c2C(=O)O/N=C(\C)c2ccccc2[N+](=O)[O-])n1 [G, (E)-1-(2-nitrophenyl)ethan-1-one O-(2-chloro-6-((4,6-dimethoxypyrimidin-2-yl)thio)benzoyl)oxime] | 100 | 95.7 | 90.4 | 84.6 | 89.4 | 60.3 | 130 to 134
8 | COc1cc(OC)nc(Sc2cccc(Cl)c2C(=O)O/N=C(\C)c2cccc([N+](=O)[O-])c2)n1 [H, (E)-1-(3-nitrophenyl)ethan-1-one O-(2-chloro-6-((4,6-dimethoxypyrimidin-2-yl)thio)benzoyl)oxime] | 100 | 90.4 | 87.7 | 88.5 | 85.9 | 64.6 | 155 to 159
9 | COc1cc(OC)nc(Sc2cccc(Cl)c2C(=O)O/N=C(\C)c2ccc([N+](=O)[O-])cc2)n1 [I, (E)-1-(4-nitrophenyl)ethan-1-one O-(2-chloro-6-((4,6-dimethoxypyrimidin-2-yl)thio)benzoyl)oxime] | 100 | 96.8 | 95.7 | 89.7 | 94.5 | 75.1 | 153 to 157
10 | COc1cc(OC)nc(Sc2cccc(Cl)c2C(=O)O/N=C(\C)c2ccccc2F)n1 [J, (E)-1-(2-fluorophenyl)ethan-1-one O-(2-chloro-6-((4,6-dimethoxypyrimidin-2-yl)thio)benzoyl) oxime] | 100 | 98.4 | 100 | 90.3 | 90.2 | 77.2 | 87 to 91
11 | COc1cc(OC)nc(Sc2cccc(Cl)c2C(=O)O/N=C(\C)c2cccc(F)c2)n1 [K, (E)-1-(3-fluorophenyl)ethan-1-one O-(2-chloro-6-((4,6-dimethoxypyrimidin-2-yl)thio)benzoyl) oxime] | 100 | 100 | 100 | 92.0 | 93.3 | 72.9 | 103 to 107
12 | COc1cc(OC)nc(Sc2cccc(Cl)c2C(=O)O/N=C(\C)c2ccc(F)cc2)n1 [L, (E)-1-(4-fluorophenyl)ethan-1-one O-(2-chloro-6((4,6-dimethoxypyrimidin-2-yl)thio)benzoyl) oxime] | 100 | 100 | 100 | 87.0 | 90.5 | 75.4 | 102 to 105
13 | COc1ccc(/C(C)=N/OC(=O)c2c(Cl)cccc2Sc2nc(OC)cc(OC)n2)c(OC)c1 [M, (E)-1-(2,4-dimethoxyphenyl)ethan-1-one O-(2-chloro-6-((4,6-dimethoxypyrimidin-2-yl)thio)benzoyl)oxime] | 100 | 100 | 100 | 85.6 | 90.9 | 77.2 | 125 to 129
14 | COc1cc(OC)nc(Sc2cccc(Cl)c2C(=O)O)n1 [Pyrithiobac-sodium, reference compound] | 95.2 | 93.9 | 60.6 | 44.7 | 96.8 | 65.4 | –
